Reference: US6852686B2, “Methods for ameliorating icthyosiform skin diseases” (The United States of America as represented by the …, priority 1999, dated 2005)

What was measured:
[1] = molecular target: T1, TGase 1 (Homo sapiens, UniProt P22735); experiment: Lipid Z esterification of involucrin by TGase 1 on SLV; type: biochemical
T1 construct: Recombinant full-length human TGase 1 and TGase 3 enzymes were expressed in Sf9 cells by the BaculoGold system; made in house; host or cells: Sf9 insect cells, BaculoGold baculovirus system, pVL1392 vector
T1 sequence (P22735 1-817): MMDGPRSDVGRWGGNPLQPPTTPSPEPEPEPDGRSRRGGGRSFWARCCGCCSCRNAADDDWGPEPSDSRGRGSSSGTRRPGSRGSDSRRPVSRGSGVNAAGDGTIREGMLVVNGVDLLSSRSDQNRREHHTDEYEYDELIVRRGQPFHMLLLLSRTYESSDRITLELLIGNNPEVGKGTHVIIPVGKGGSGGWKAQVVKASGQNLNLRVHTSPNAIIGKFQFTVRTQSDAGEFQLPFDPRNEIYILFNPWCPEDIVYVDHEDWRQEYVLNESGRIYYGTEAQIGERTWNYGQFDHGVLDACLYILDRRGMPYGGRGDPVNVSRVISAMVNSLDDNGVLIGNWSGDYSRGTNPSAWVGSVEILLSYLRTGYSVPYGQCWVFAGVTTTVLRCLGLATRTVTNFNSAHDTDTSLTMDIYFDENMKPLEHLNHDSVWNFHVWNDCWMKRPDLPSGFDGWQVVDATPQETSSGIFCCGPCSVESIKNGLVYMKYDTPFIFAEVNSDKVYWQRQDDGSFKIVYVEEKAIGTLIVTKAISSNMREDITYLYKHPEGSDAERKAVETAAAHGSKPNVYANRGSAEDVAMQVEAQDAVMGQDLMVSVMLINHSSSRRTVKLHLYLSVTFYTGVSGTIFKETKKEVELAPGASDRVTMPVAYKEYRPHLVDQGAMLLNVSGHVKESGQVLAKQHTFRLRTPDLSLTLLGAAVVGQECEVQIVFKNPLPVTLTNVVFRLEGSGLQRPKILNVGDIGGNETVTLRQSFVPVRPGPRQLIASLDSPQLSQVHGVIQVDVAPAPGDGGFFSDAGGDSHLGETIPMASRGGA
Procedure: A mixture of 54 mol % dimyristoyl-phosphatidylcholine, 15 mol % dipalmitoyl-phosphatidylserine, 30 mol % cholesterol (all from Sigma, St. Louis, Mo.) and 1 mol % lipid Z was made in chloroform: methanol (9:1). This solution was dried down, taken up in aqueous buffer and dispersed by sonication as before (Nemes et al., J. Biol. Chem., 274: in press (1999)). The SLV suspension was equipped with TGase 1 enzyme by incubation at 37° C. for 15 min prior to adding substrates.
The reactions were stopped by the addition of EDTA to 10 mM.
Following reaction, 0.1 ml 20% SDS in water was added to the samples and the mixture was vortexed. This mixture was precipitated and washed three times with acetone-triethylamine-acetic acid (90:5:5) to remove the SDS and the unbound lipids (Konigsberg, W. H. and L. Henderson, Meth. Enzymol., 91: 254-259 (1983), herein expressly incorporated by reference in its entirety). After further washing with acetone the pellet was dried under vacuum and redissolved in 50 mM Tris-HCl (pH 7.5). Resolubilized protein was digested for 16 h with 2 mol % modified trypsin (Boehringer Mannheim). Peptides were resolved on a 250×2 mm PrimesphereC4 HPLC column (Phenomenex) and separated using a gradient elution from 75% buffer A (0.1% TFA in water) to 75% buffer B (50% 2-propanol in acetonitrile) in 40 min. Under these conditions, lipo-peptides were retarded but free peptides elute with the solvent front (Marekov, L. N. and P. M. Steinert, J. Biol. Chem., 273: 17763-17770 (1998), herein expressly incorporated by reference in its entirety).
Amino acid analysis of hydrolyzed samples (5.7 N HCl at 110° C. for 24 h in vacuo) was used to routinely measure amounts of lipo-peptides. Aliquots of isolated lipo-peptide peaks were attached to a solid support for sequencing (Marekov, L. N. and P. M. Steinert, J. Biol. Chem., 273: 17763-17770 (1998), herein expressly incorporated by reference in its entirety). Saponification of lipo-peptides was done with 1 N KOH in 80% methanol for 2 h at 37° C., after which the solution was acidified, dried and peptides were recovered by HPLC on a C18 column.

[2] = molecular target: T1, TGase 1; experiment: as above; type: biochemical; remark: listed apart in the source
[3] = 0.3 nmol involucrin/μmol lipid, 4 h reaction

maximum lipid ester formation for Gln 496 [1, 3]: < 0.05 mol/mol | maximum lipid ester formation per mole of Gln residues 107, 118, 122, and 133 [1, 3]: 0.1 to 0.3 mol/mol | incorporation rate into involucrin ([1]; SLV formulations with 1 mol % lipid Z): 2.2±0.3 fmol of lipid Z/s | amount incorporated into SLV without interference with SLV stability or binding of involucrin and TGase 1 [2]: ≤ 25 mol % | KM of lipid Z incorporation into involucrin ([2]; rate linear up to 25 mol % lipid Z in SLV): > 100 mol %
Compound: CCCCCCCCCCCCC/C=C/[C@@H](O)[C@H](CO)NC(=O)CCCCCCCCCCCCCCCOCCCCCCCCCCCCCCCCO [lipid Z, N-[16-(16-hydroxyhexadecyl)oxypalmitoyl]-sphingosine]
involucrin-lipid adduct formation by TGase 1 on SLV membranes ([1]; ceramide incorporated in SLV): formed saponifiable protein-lipid adducts
